Among the data in PubChem BioAssay (NCI) are TGI values, retold here.

Each structure is given as a SMILES string.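 Five compound concentrations were applied to cells in 96-well plates for 48 hours; endpoints were derived by simple linear interpolation of the resulting dose-response curve. TGI marks complete inhibition of growth.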 Bounds are passed on as bounds.

Assay in all cases: growth of human tumour cells (NCI), 48 h
Test [1] deals with RPMI-8226 leukemia.
In test [2] the test system is OVCAR-8 ovarian.
Test [3] deals with MDA-MB-231 breast.
The test system of test [4] is HOP-92 NSCLC.
For test [5], the system named is OVCAR-5 ovarian.
Test [6] deals with A549 NSCLC.
Test [7] deals with SR leukemia.
Test [8] deals with OVCAR-3 ovarian.
Test [9] relates to SNB-19 CNS.
Test [10] deals with M14 melanoma.
The subject of test [11] is EKVX NSCLC.

For `c1ccc2c(OCC3CO3)ccc(OCC3CO3)c2c1` (configuration not stated), the TGI stood at 9.44 µM in [1]; 10.4 µM in test [2]; 22.3 µM in [3]; 18.4 µM in test [4]; 23.3 µM in test [5]; 16.9 µM in [6]. In addition, the TGI in test [7] is 11.1 µM; in test [8] it was 6.75 µM; in [9], 21 µM; in [10], 13.3 µM; in test [11], 32.7 µM.
Consider `COc1ccc(OC)c2c(=O)cc(-c3ccccc3)[nH]c12`, for which the TGI in [1], in test [2], in [3], in test [5], in test [6] and in test [7] was over 100 µM throughout. Besides, the TGI in test [8], in test [9], in test [10] and in test [11] was over 100 µM each time.
For `CC[N+](CC)(CC)Cc1cn(S(=O)(=O)c2ccccc2)c2ccccc12`, the TGI in [1], in test [2], in [4], in test [5], in test [6] and in [7] was over 100 µM each time. In addition, the TGI in test [8], in test [9] and in test [10] was over 100 µM throughout.
Take `CC(=O)NNc1nc(C)c(C(/C=C/c2ccccc2O)=N/NC(=O)c2ccncc2)s1`: the TGI in [1], in [2], in test [3], in test [4], in test [5] and in test [6] was over 100 µM throughout. Besides, the TGI in test [7], in [8], in test [9], in test [10] and in [11] was over 100 µM in each case.
For `N#CC(c1ccc(Cl)cc1)c1cccc(Cl)n1` (configuration not stated), the TGI was over 100 µM in test [1]; over 100 µM in test [2]; 74.8 µM in [4]; over 100 µM in [5]; over 100 µM in test [6]; over 100 µM in test [7]. For the same compound, the TGI in test [8], in test [9], in [10] and in [11] was over 100 µM throughout.
Regarding `CN(C)c1cccc(-c2cc(=O)c3cc4c(cc3[nH]2)OCO4)c1`, the TGI in test [1] was over 100 µM; in [2], 3.65 µM; in test [4], over 100 µM; in test [5], 0.92 µM; in [7] it was over 100 µM; in test [8] it was 0.0575 µM. In addition, the TGI in test [9] is over 57.6 µM; in test [10], 0.461 µM; in test [11] it was over 100 µM.
`CC1=CC[C@@]2(C)[C@@H]([C@@H]1C)[C@H]1CC[C@@H]3[C@@]4(C)CC[C@H](O)C(C)(C)[C@@H]4CC[C@@]3(C)[C@]1(C)C[C@@H]2O`: the TGI in [1] is over 100 µM; in test [2], 28.7 µM; in test [3] it was 20.2 µM; in test [4], 53 µM; in [5], over 78.2 µM; in [6] it was over 100 µM. Also, the TGI was 7.34 µM in test [7]; 45.5 µM in test [8]; over 66.4 µM in test [9]; 32.3 µM in test [10]; 23.6 µM in test [11].
On to `CCCN(CCC)C(=S)N/N=C/c1cccc(C)n1`, for which the TGI in test [1] is 0.546 µM; in [2] it was 0.729 µM; in [3], 2.03 µM; in test [4], over 100 µM; in test [5] it was 47.2 µM; in test [6], 10.3 µM. Moreover, the TGI in [7] is 0.376 µM; in [9], over 100 µM; in test [10], 1.01 µM; in test [11], 8.34 µM.
On to `COc1cc(/C=C2\CCC(C)c3c2nc(N)c(C#N)c3-c2cc(OC)c(OC)c(OC)c2)cc(OC)c1OC` (configuration not stated), for which the TGI in test [1] was over 100 µM; in [2], 40.3 µM; in test [3], over 100 µM; in test [4], over 100 µM; in test [5], over 100 µM; in test [6], over 100 µM. Further, the TGI in test [7], in test [9], in [10] and in [11] was over 100 µM in each case.
On to `CC1=C(C#N)C(=O)N(/N=C/c2ccc(Cl)cc2)C(=O)/C1=c1\o/c(=C2/C(=O)N(/N=C/c3ccc(Cl)cc3)C(=O)C(C#N)=C2C)c2nccnc12`, for which the TGI in test [1], in [2], in test [3], in test [4], in test [5] and in test [6] was over 100 µM throughout. The TGI in test [7], in test [8], in [9], in test [10] and in [11] was over 100 µM in each case.
Consider `COc1ccc2c(c1)-c1c(c3ccccc3n1CCN1CCCCC1)CC2`, for which the TGI is 36.3 µM in test [1]; over 55.3 µM in test [2]; 31.1 µM in test [3]; 54.4 µM in test [4]; over 57.2 µM in test [5]; over 88.9 µM in test [6]. In addition, the TGI is 30.9 µM in [7]; 26.1 µM in test [8]; 66.4 µM in test [9]; over 55.8 µM in test [10]; 70.5 µM in [11].
For `c1cc2[se][se]c3c4cccc5[se][se]c(c(c1)c23)c54`, the TGI in test [1], in test [2], in test [4], in test [5], in test [6] and in [7] was over 100 µM throughout. In addition, the TGI in test [8], in test [9] and in test [10] was over 100 µM in each case.
